Tests used:
[1] = Toxicity determined in mice, oral and intraperitoneal administration; assay type: in vivo
Procedure: The toxicity was determined in mice for various ways of administration.

[2] = system: arrhythmias in mice subjected to chloroform anesthesia; experiment: Arrhythmias in mice subjected to chloroform anesthesia; assay type: in vivo; settings: intraperitoneally, 100 mg/kg
[3] = system: right auricle of a guinea pig; experiment: Chronotropic effect induced by histamine on the spontaneously beating right auricle of a guinea pig; settings: Cavia porcellus, 100 microg/ml, 5 microg/ml of histamine
[4] = system: edema of a rat's foot induced by carrageenan; experiment: Edema of a rat's foot induced by carrageenan; assay type: in vivo; settings: orally, 200 mg/kg
[5] = system: convulsions induced by bicuculline; experiment: Convulsions induced by injection of bicuculline; assay type: in vivo
[6] = system: GABA transaminase; experiment: Action on GABA transaminase, concluded from second administration of bicuculline; assay type: in vivo; settings: concluded from lack of inhibition of convulsions at second bicuculline administration 5 hours later

Structure (SMILES) | mortality ([1]; intraperitoneally at 200 mg/kg) | mortality ([1]; orally at 300 mg/kg) | appearance of arrhythmias [2] | inhibition at 100 µg/mL [3] | inhibition of edema of a rat's foot induced by carrageenan [4] | type of activity ([5]; concluded from the bicuculline convulsion tests) | inhibition of convulsions induced by bicuculline ([5]; intraperitoneally, 80 mg/kg, 0.5 mg/kg of bicuculline 30 minutes later) | inhibition of convulsions induced by a second administration of bicuculline ([5]; intraperitoneally, 80 mg/kg, second administration of bicuculline 5 hours later) | action on GABA transaminase [6]
CCN(CC)CC1CN=C(NC(=O)Nc2ccccc2)O1 (centres unmarked) [Example 1, N-(5-diethylaminomethyl-2-oxazolin-2-yl)-N'-phenylurea] | did not cause any mortality | did not cause any mortality | prevented the appearance of arrhythmias | > 50% | 51% | – | – | – | –
O=C(NC1=NCC(CN2CCc3ccccc3C2)O1)Nc1ccccc1 (centres unmarked) [Example 3] | did not cause any mortality | did not cause any mortality | – | – | – | direct gabergic type | caused an inhibition of convulsions | no longer inhibits convulsions | does not act on the GABA transaminase
O=C(NC1=NCC(CN2CCCCC2)O1)Nc1ccccc1 (centres unmarked) [Example 2, N-Phenyl-N'-(5-piperidinomethyl-2-oxazoline-2-yl)urea] | did not cause any mortality | did not cause any mortality | prevented the appearance of arrhythmias | – | – | – | – | – | –

Source: patent US4499090A, “N-(5-aminomethyl-2-oxazolin-2-yl)-N'-phenylureas, compositions and use” (Societe Cortial, S.A., priority 1982, dated 1985)
